Measurements as given in US20250281649A1, “PROBE DIRECTED TO ENZYME ALDH1A3 AND USE THEREOF IN THE DIAGNOSIS OF GLIOBLASTOMA” (Universita' Degli Studi Del Piemonte Orientale "A. Avogadro", priority 2021, published 2025).
Like-named read-outs stand apart in the source and are kept apart here. Each block holds one molecule with its values, some of them ahead of it.

How the values were obtained:
ALDH1A3 [1] = molecular target: T1, ALDH1A3 (Homo sapiens, UniProt P47895); experiment: IC50 evaluation, NADH formation at 340 nm (Tecan SUNRISE); assay type: biochemical
T1 construct: His-tag; made in house; host or cells: bacterial cells
T1 sequence (P47895 1-512): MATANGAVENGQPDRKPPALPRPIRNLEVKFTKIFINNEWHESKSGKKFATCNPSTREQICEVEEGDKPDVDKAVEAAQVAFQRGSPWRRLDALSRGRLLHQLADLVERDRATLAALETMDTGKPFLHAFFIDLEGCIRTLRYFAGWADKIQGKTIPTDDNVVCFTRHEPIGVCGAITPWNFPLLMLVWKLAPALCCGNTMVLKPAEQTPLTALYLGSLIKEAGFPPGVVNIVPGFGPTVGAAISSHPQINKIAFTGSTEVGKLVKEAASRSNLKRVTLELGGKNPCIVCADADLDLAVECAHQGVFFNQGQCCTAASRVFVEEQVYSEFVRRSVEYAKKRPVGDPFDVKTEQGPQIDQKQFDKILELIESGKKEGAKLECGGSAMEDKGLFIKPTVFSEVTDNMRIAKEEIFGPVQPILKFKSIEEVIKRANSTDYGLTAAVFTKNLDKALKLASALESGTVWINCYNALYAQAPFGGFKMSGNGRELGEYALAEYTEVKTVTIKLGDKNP
Procedure: (§1) A common protocol to express and purify all three members of the ALDHIA subfamily has been optimized. Briefly, induced cells, collected by centrifugation, were re-suspended in an appropriate volume of lysis buffer (50 mM Na2HPO4, 300 mM NaCl, 1 mM β-mercaptoethanol, 20 mM imidazole, pH 7.5) added of benzonase nuclease (250 U/μL) and Protease inhibitor cocktail from SIGMA. After ultracentrifugation, the clarified sample was purified by a His-tag affinity chromatography followed by size-exclusion chromatography, using an AKTA FPLC system, at 4° C. To evaluate the purity and homogeneity of the protein, after each purification step, eluted d fractions were analyzed by SDS-PAGE and the protein quantification was always determined by Bradford protein assay.
(§2) IC50 evaluation: on a Tecan—SUNRISE, probe 13 was tested in a serial dilution series from 200 μM to 3, 125 μM, against all the three isoenzymes. The recipe of reaction buffer was: 20 mM Tris HCl pH=8, 150 mM KCl, 1 mM B-mercaptoethanol, 500 μM NAD^+, 15% DMSO fixed, 20 mM acetaldehyde and 2.7 μM each isoenzyme. The analysis was conducted measuring the NADH formation, that has a specific absorbance wavelength (340 nm). The test was performed in triplicate with all the three isoenzymes.

ALDH1A1 [2] = molecular target: T2, ALDH1A1 (Homo sapiens, UniProt P00352); experiment: as above; assay type: biochemical
T2 construct: His-tag; made in house; host or cells: bacterial cells
T2 sequence (P00352 1-501): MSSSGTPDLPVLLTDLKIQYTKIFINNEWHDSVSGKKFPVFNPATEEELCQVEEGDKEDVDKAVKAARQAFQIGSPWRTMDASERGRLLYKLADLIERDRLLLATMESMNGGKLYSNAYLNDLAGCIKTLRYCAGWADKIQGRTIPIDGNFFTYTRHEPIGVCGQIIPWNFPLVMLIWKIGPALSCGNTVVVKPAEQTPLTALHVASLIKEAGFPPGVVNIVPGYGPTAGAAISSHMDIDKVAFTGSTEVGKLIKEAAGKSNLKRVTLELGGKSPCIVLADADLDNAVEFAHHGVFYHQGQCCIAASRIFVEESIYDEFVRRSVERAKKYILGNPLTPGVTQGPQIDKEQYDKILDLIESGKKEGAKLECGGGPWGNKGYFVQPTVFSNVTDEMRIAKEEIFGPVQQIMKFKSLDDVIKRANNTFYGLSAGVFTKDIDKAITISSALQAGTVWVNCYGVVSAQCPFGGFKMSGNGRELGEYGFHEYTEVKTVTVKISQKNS
Procedure: as §1, §2

ALDH1A2 [3] = molecular target: T3, ALDH1A2 (Homo sapiens, UniProt O94788); experiment: as above; assay type: biochemical; conditions: 20 mM acetaldehyde, 500 μM NAD+, 15% DMSO, 2.7 μM isoenzyme
T3 construct: His-tag; made in house; host or cells: bacterial cells
T3 sequence (O94788 1-518): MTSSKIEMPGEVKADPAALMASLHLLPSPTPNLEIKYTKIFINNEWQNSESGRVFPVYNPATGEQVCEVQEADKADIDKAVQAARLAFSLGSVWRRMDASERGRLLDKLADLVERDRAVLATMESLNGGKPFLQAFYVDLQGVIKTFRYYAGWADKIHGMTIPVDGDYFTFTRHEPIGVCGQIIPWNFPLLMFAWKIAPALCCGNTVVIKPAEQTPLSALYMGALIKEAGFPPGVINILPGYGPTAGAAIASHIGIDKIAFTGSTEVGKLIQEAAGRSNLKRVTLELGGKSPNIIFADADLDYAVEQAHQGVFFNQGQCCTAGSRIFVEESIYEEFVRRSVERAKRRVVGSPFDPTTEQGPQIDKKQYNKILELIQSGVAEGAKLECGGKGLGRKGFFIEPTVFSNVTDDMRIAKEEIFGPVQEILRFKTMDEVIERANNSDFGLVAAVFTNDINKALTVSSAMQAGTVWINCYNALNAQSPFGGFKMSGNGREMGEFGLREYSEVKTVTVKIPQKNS
Procedure: as §1, §2

ALDH1A3 [4] = molecular target: T1, ALDH1A3; experiment: KD evaluation by probe fluorescence (Tecan SPARK); assay type: binding
Procedure: as §1
(§3) KD evaluation: on a Tecan—SPARK, probe 14 and 13 were tested at a fixed concentration of 10 μM. All the isoenzymes were tested in wide range of concentrations (from 100 μM to 1 μM). The analysis was settled with a BW of 20, monitoring the Em wavelength in range comprised between 520 and 535 nm for probe 14 and 520 and 580 nm for probe 13. The Ex was fixed at 420 nm for probe 14 and 440 nm for probe 13. The test was performed in quadruplicate with all the three isoenzymes. The recipe of the buffer reaction was the same as described before.

ALDH1A3 [5] = molecular target: T1, ALDH1A3; experiment: Fluorescence of probes in buffer and in complex with the isoenzymes (Tecan SPARK); assay type: binding; conditions: in complex with the three isoenzymes, in particular ALDH1A3
Procedure: All five compounds were dissolved in DMSO (100%) to obtain two different initial stocks, one at 10 mM and a second one at 1 mM. […] The assay can be executed at a maximum DMSO percentage of 15%. The maximum probe concentration tested was 500 uM—15% DMSO. All the compounds were tested using a Tecan—SPARK, to analyze their absorbance, excitation and emission wavelength. Based on the literature, the absorbance of the curcumin by itself is comprised between 420 and 425 nm. At first, we measured the absorbance, and from those values, we performed a 3D analysis to highlights the correct Ex and Em wavelengths. To avoid any possible background in the fluorescence signal we performed a screening of every possible buffer used in our assays.

ALDH1A1 [6] = molecular target: T2, ALDH1A1; experiment: KD evaluation by probe fluorescence (Tecan SPARK); assay type: binding; conditions: probe fixed at 10 μM, isoenzyme 100 μM to 1 μM
Procedure: as §1, §3

ALDH1A2 [7] = molecular target: T3, ALDH1A2; experiment: KD evaluation by probe fluorescence (Tecan SPARK); assay type: binding; conditions: probe fixed at 10 μM, isoenzyme 100 μM to 1 μM
Procedure: as §1, §3

[8] = substrate: COc1cc(/C=C/C(=O)/C=C(O)/C=C/c2ccc(OCc3cn(CCOc4ccc(C=O)cc4)nn3)c(OC)c2)ccc1O; experiment: KM evaluation, compound as possible substrate, NADH formation; assay type: biochemical, human; conditions: 5% DMSO, pH 7.5
Procedure: as §1
KM evaluation: on a Tecan—SUNRISE, due to the inconsistency of result of the KD evaluation with probe 13 and to its chemistry nature (benzaldehyde), we performed an analysis to evaluate this compound possible substrate. The compound was tested in a serial dilution from 300 to 3.125 μM, at 5% DMSO. The analysis was conducted measuring the NADH formation, that has a specific absorbance wavelength (340 nm). The recipe of the buffer reaction was the same as described before. The assay was performed only for ALDH1A1 and ALDH1A2. The test was performed in triplicate with all the three isoenzymes.

[9] = ALDH1A3, 20 mM acetaldehyde, 500 μM NAD+, 15% DMSO, 2.7 μM isoenzyme, read-out: IC50
[10] = ALDH1A1, 20 mM acetaldehyde, 500 μM NAD+, 15% DMSO, 2.7 μM isoenzyme, read-out: IC50
[11] = ALDH1A3, probe fixed at 10 μM, isoenzyme 100 μM to 1 μM, read-out: KD

Molecule: CCOP(=O)(OCC)Oc1ccc(/C=C/C(=O)/C=C(O)/C=C/c2ccc(OCc3cn(CCOc4ccc(C=O)cc4)nn3)c(OC)c2)cc1OC [Compound 16]
- IC50 (ALDH1A3 [1]): 8.5 µM
- IC50 (ALDH1A1 [2]): 150 µM
- IC50 (ALDH1A2 [3]): N.I.
- Kd (ALDH1A3 [4]): 55.7 µM
- increase of fluorescence in complex with the isoenzymes (ALDH1A3 [5]): no good result

Molecule: CCOC(=O)Cn1cc(COc2ccc(C=CC(=O)C=C(O)C=Cc3ccc(OP(=O)(OCC)OCC)c(OC)c3)cc2OC)nn1 [Compound 17]
- IC50 (ALDH1A3 [1]; [9]): 158 µM
- IC50 (ALDH1A1 [2]; [10]): 70.1 µM
- IC50 (ALDH1A2 [3]): N.I.
- Kd (ALDH1A3 [4]; [11]): 14.9 µM
- Kd (ALDH1A1 [6]): 18.1 µM

- IC50 (ALDH1A3 [1]; [9]): 5.1 µM
- IC50 (ALDH1A1 [2]; [10]): 28.5 µM
- IC50 (ALDH1A2 [3]): N.I.
- Kd (ALDH1A3 [4]; [11]): 20.4 µM
- Kd (ALDH1A1 [6]): 23.9 µM
- Kd (ALDH1A2 [7]): 8.7 µM
- increase of fluorescence in complex with the isoenzymes (ALDH1A3 [5]): no good result
Molecule: COc1cc(/C=C/C(O)=C/C(=O)/C=C/c2ccc(N(C)C)cc2)ccc1OCc1cn(CCOc2ccc(C=O)cc2)nn1 [Compound 15]

B1: ALDH1A1 (Homo sapiens) (protein)
chain: T2 sequence (P00352 1-501)
notes: His-tag; made in house; host or cells: bacterial cells
- Km ([8]; other: ALDH1A1, 300 to 3.125 μM): 255.2 µM

B2: ALDH1A2 (Homo sapiens) (protein)
chain: T3 sequence (O94788 1-518)
notes: as for B1
- Km ([8]; other: ALDH1A2, 300 to 3.125 μM): 220.0 µM
